Measured values published in US10123981B2, “Methods for treatment of pelvic pain and/or comorbid conditions” (priority 2012, dated 2018).
Where two headings read alike, the source gives them in different places.

How the values were obtained:
[1] = In vitro release of lidocaine from silicone tube devices (diffusion through wall / apertures); assay type: physicochemical; conditions: in vitro in water at about 37° C.; tubes with or without apertures
Experimental: A study was performed to determine the feasibility of delivering drug through the wall of a drug reservoir via diffusion. […] Some of the devices included an aperture formed through the tube wall, the aperture having a diameter of 150 μm. […] The devices were tested in vitro in water at about 37° C. […] Another study was performed to investigate the feasibility of delivering drug from a device through both a wall of a drug reservoir and from an aperture in the wall of the drug reservoir. Devices were formed form silicone tubes having a length of about 3 cm. […] The devices were tested in vitro in water at about 37° C.

[2] = tested on: IC; conditions: cited from earlier work

| Compound | release of drug from silicone tube [1] | mean pain score ([2]; after second instillation) | mean pain score ([2]; immediately following treatment (prior to treatment 6.0)) | duration of effect ([2]; single instillation) | mean pain score ([2]; the next day) |
| --- | --- | --- | --- | --- | --- |
| CCN(CC)CC(=O)Nc1c(C)cccc1C [lidocaine base] | can be released from a silicone tube without any apertures | – | – | – | – |
| CCN(CC)CC(=O)Nc1c(C)cccc1C [lidocaine] | – | 1.2 | 1.8 | approximately 24 hours | 3.7 |
